This is an account of results in PubChem BioAssay AID504931 (NMMLSC, 2011).

As usually defined, the EC50 is the concentration that produces a half-maximal response.

The source made the active and inactive calls.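 Rule for the calls: active = compounds with a reliable fitted curve whose half-effect concentration is below 50 µM; inactive = the rest.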

The first experiment deals with S. cerevisiae aged cells, superoxide DHE fluorescence, 7 d. Nature of the experiment: S. cerevisiae superoxide reduction in aged cells – powder samples, confirmation, dose response (AID 504931).
Conditions: not given
Consider `CC(C)(C)n1nc(-c2ccc(F)cc2)c2c(N)ncnc21`, for which the EC50 is 17200 nM.

For the compound `CC(=O)Nc1ccc2nc3ccccc3nc2c1`, the EC50 is 330 nM. Consider `CC(C)(C)n1nc(-c2ccc(Cl)cc2)c2c(N)ncnc21`, for which the EC50 is 7980 nM. `CCN(CC)C(=O)c1cccc2nc3ccccc3nc12`: the EC50 was 2800 nM.

Consider `CCN(CC)c1ccc2nc3ccc(N)cc3[n+](-c3ccccc3)c2c1`, for which the EC50 is 26400 nM. Still for that read-out and setting: next, `Nc1cc2nc3ccccc3nc2cc1N`: 4500 nM. On the same count and under the same terms, next, `COc1cccc2nc3cc(C)c(C)cc3nc12`: 900 nM; `CCCCCNC(=O)C(=O)C1C(=O)Nc2ccccc21` (stereo not drawn): 330 nM; `COc1ccc2nc3ccccc3nc2c1NC(=O)c1ccccc1Cl`: 1110 nM. Regarding `CC(C)OC(=O)c1ccc2nc3ccccc3nc2c1`, the concentration giving a half-maximal response (EC50) is 10900 nM.

Turning to `FC(F)(F)c1nc2cc3nc4ccccc4[nH]c3cc2n1`, the EC50 is 510 nM. For the compound `CCN(CC)C(=O)c1ccc2nc3ccccc3nc2c1`, the EC50 is 800 nM.

`COc1ccc2nc3ccccc3nc2c1N`: the EC50 was 2320 nM. As to `COc1ccc2c(c1)c1nnc(SC)nc1n2C`, the EC50 was 1570 nM. As to `c1ccc2[nH]c3cc4ncnc4cc3nc2c1`, the EC50 was 1110 nM. Still for that read-out and setting: the same measure for `O=C1c2c(O)ccc(O)c2C(=O)c2c(NCCNCCO)ccc(NCCNCCO)c21`: 3410 nM; for `OCC[n+]1c2ccccc2nc2ccc(N3CCOCC3)cc21`: 10700 nM. `N#CCc1nn(-c2ccccc2)c2ncnc(N)c12`: the EC50 was 800 nM.

With `O=C(c1cccc2nc3ccccc3nc12)N1CCOCC1`, the EC50 was 2330 nM. `CNc1ccc2nc3ccccc3[n+](C)c2c1`: the EC50 was 6010 nM. Take `Cc1ccc(-c2nn(C(C)(C)C)c3ncnc(N)c23)cc1`: the EC50 was 2250 nM. Turning to `Cc1ccccc1NC(=O)c1cccc2nc3ccccc3nc12`, the EC50 was 5450 nM.

Tested on in another experiment: not listed separately
Described as above. To be noted: S. cerevisiae aged cells, superoxide DHE fluorescence, 7 d; at 100 µM (top of the series).
For the compound `O=C(O)c1cnc2ccccc2n1`, the percent response, lower = inhibition was 75.7% (inactive). As to `O=C(Nc1ccc2nccnc2c1)N1CCN(c2ccccc2)CC1`, the percent response, lower = inhibition was 91.3% (inactive). Take `Cn1c(O)c(C(=Nc2ccc(F)cc2)c2ccccc2Cl)c(=O)n(C)c1=O`: the percent response, lower = inhibition was 98.6% (inactive). Turning to `O=C(Nc1ccc2nccnc2c1)N1CCOCC1`, the percent response, lower = inhibition was 96.4% (inactive). Take `O=C(Nc1cccc2nccnc12)c1ccccc1`: the percent response, lower = inhibition was 80.3% (inactive).

With `CCc1nc(NC(C)(C)C)c2cnn(-c3ccccc3)c2n1`, the percent response, lower = inhibition is 117% (inactive). Turning to `COc1ccc2nc3ccccc3[n+]([O-])c2c1`, the percent response, lower = inhibition is 122% (inactive). Consider `O=C(Nc1ccccc1)c1ccc2nccnc2c1`, for which the percent response, lower = inhibition was 96.8% (inactive). In the case of `O=C(Nc1ccc2nc3ccccc3nc2c1)c1ccc(Br)cc1`, the percent response, lower = inhibition was 88% (inactive). Regarding `CC(C)OC(=O)CSc1nnc(-c2ccc(Cl)cc2Cl)o1`, the percent response, lower = inhibition is 97.2% (inactive). As for `Cc1cc(C)cc(NC(=O)CN2CCN(c3ccccn3)CC2)c1`, the percent response, lower = inhibition is 99.1% (inactive). In the case of `O=C(CN1CCN(c2ccccn2)CC1)Nc1ccccc1F`, the percent response, lower = inhibition was 98.8% (inactive). Take `O=C(c1cccc2nccnc12)N1CCN(c2ccccc2F)CC1`: the percent response, lower = inhibition was 101% (inactive).

`CCC(=Nc1ccccc1O)C1=C(O)CC(c2ccccc2)CC1=O` (stereo not drawn): the percent response, lower = inhibition is 62.2% (inactive). Turning to `CN(C)C(=O)c1ccc2nccnc2c1`, the percent response, lower = inhibition is 181% (inactive). Turning to `C[C@@]12C(=O)OC(=O)[C@]1(C)C1CCC2O1`, the percent response, lower = inhibition was 351% (inactive). For the compound `COc1ccc2cc(C3CC(c4ccco4)=NN3S(=O)(=O)c3ccccc3)c(Cl)nc2c1` (stereo not drawn), the percent response, lower = inhibition was 97.3% (inactive).

Consider `CN1CCN(C(=O)c2ccc3nccnc3c2)CC1`, for which the percent response, lower = inhibition is 105% (inactive). Take `O=C(c1ccc2nccnc2c1)N1CCN(c2ccccc2)CC1`: the percent response, lower = inhibition was 89.9% (inactive). Take `CC(C)(C)NC(=O)Nc1ccc2nccnc2c1`: the percent response, lower = inhibition is 101% (inactive).

Consider `c1ccc2nc3ccccc3nc2c1`, for which the percent response, lower = inhibition was 119% (inactive). On to `O=c1[nH]c(O)c(C=Nc2ccc(F)c(Cl)c2)c(=O)[nH]1`, for which the percent response, lower = inhibition was 106% (inactive). For the compound `C=CCSc1ccc(-c2ccc([N+](=O)[O-])cc2)o1`, the percent response, lower = inhibition is 54.8% (inactive). Turning to `CCn1c2ccccc2c2n[nH]c(=S)nc21`, the percent response, lower = inhibition is 99.9% (inactive). With `CSc1nnc(-c2ccc([N+](=O)[O-])cc2)o1`, the percent response, lower = inhibition was 74% (inactive).

With `O=C(Nc1ccc2nccnc2c1)NC1CCCCC1`, the percent response, lower = inhibition was 96% (inactive).

`O=C(O)c1ccc2nccnc2c1`: the percent response, lower = inhibition was 85.8% (inactive). With `Nc1ccc2nccnc2c1`, the percent response, lower = inhibition was 96.2% (inactive). On to `CN(C)CCNc1ncnc2c1cnn2-c1ccc(Cl)cc1`, for which the percent response, lower = inhibition is 92% (inactive). As for `CC(C)CSc1nnc2c3ccccc3n(C)c2n1`, the percent response, lower = inhibition is 110% (inactive). In the case of `Cn1c(=O)[nH]c2nncnc2c1=O`, the percent response, lower = inhibition is 111% (inactive).

With `O=C(c1cccc2nccnc12)N1CCOc2ccccc21`, the percent response, lower = inhibition is 96.8% (inactive). On to `O=C(/C=C/c1ccccc1)NC(=S)NNC(=O)Cc1cccs1`, for which the percent response, lower = inhibition is 74.9% (inactive). Take `CCN(CC)C(=O)CSc1nnc(-c2cccc(OC)c2)o1`: the percent response, lower = inhibition was 104% (inactive). On to `O=C(/C=C/c1cccs1)NC(=S)NNC(=O)Cc1cccs1`, for which the percent response, lower = inhibition was 66.6% (inactive). On to `O=C(NCc1ccccc1)c1ccc2nccnc2c1`, for which the percent response, lower = inhibition was 178% (inactive).

With `[O-][n+]1c2ccccc2[n+]([O-])c2cc(O)ccc21`, the percent response, lower = inhibition was 126% (inactive). For `COc1ccc2nc3ccccc3nc2c1`, the percent response, lower = inhibition was 108% (inactive). With `O=C(OCc1c(F)cccc1Cl)c1cnc2ccccc2n1`, the percent response, lower = inhibition is 86.9% (inactive). Regarding `CC(C)(C)Nc1ncnc2c1cnn2-c1ccccc1`, the percent response, lower = inhibition is 94.4% (inactive). Still for that read-out and setting: next, `Cc1cc2nc3ccc(N(C)C)cc3nc2cc1N`: 89.3% (inactive); `O=C(Nc1cccc(Cl)c1)Nc1ccc2nccnc2c1`: 87.5% (inactive).

Turning to `O=C(Nc1ccc2nccnc2c1)c1cccc2nccnc12`, the percent response, lower = inhibition was 80.9% (inactive). `Cc1cc(C)c2[nH]c3nc(SCC(=O)O)nnc3c2c1`: the percent response, lower = inhibition was 92.4% (inactive). In the case of `C[n+]1c2ccccc2nc2ccc(NCCO)cc21`, the percent response, lower = inhibition was 62.9% (inactive).

In the case of `C#CCSc1ccc(-c2ccc([N+](=O)[O-])cc2)o1`, the percent response, lower = inhibition was 58% (inactive).

Turning to `C=CCOn1c(=O)c(-c2cccs2)[n+]([O-])c2ccccc21`, the percent response, lower = inhibition is 112% (inactive). Regarding `O=C(O)c1cccc2nccnc12`, the percent response, lower = inhibition is 93.9% (inactive). In the case of `O=C(c1ccc2nccnc2c1)N1CCCCC1`, the percent response, lower = inhibition is 105% (inactive). Consider `N#CC(c1nc2ccccc2nc1N1CCCC1)S(=O)(=O)c1ccccc1` (stereo not drawn), for which the percent response, lower = inhibition is 89.3% (inactive). In the case of `Oc1cccc2nc3ccccc3nc12`, the percent response, lower = inhibition is 194% (inactive).
